Assay [1] addresses T1, Speckle-type POZ protein-Bromodomain-containing protein 4 (Homo sapiens, UniProt O60885+O43791). Briefly: PROTAC activity at SPOP/BRD4-L in human HT-29 cells assessed as induction of BRD4 long isoform degradation at 5 uM measured after >=48 hrs by Western blotting analysis. The class given is cell-based.
Assay [2] concerns the target T1, Speckle-type POZ protein-Bromodomain-containing protein 4. Briefly: PROTAC activity at SPOP/BRD4-L in human HT-29 cells assessed as induction of BRD4 long isoform degradation by measuring fold change at 0.313 uM incubated for 24 hrs by Western blotting analysis (reference value: 1.00). The class given is cell-based.
The target is the same in assay [3]. Briefly: PROTAC activity at SPOP/BRD4-S in human HT-29 cells assessed as induction of BRD4 short isoform degradation by measuring fold change at 0.156 uM incubated for 24 hrs by Western blotting analysis (reference value: 1.00). The class given is cell-based.
The target of assay [4] is T2, Speckle-type POZ protein-Bromodomain-containing protein 3 (Homo sapiens) (UniProt Q15059+O43791). Briefly: PROTAC activity at SPOP/BRD3 in human HT-29 cells assessed as induction of BRD3 degradation by measuring fold change at 0.156 uM incubated for 24 hrs by Western blot analysis (reference value: 1.00). The class given is cell-based.
Assay [5] concerns the target T1, Speckle-type POZ protein-Bromodomain-containing protein 4. The assay is described as follows: PROTAC activity at SPOP/BRD4-S in human HT-29 cells assessed as induction of BRD4 short isoform degradation by measuring fold change at 10 uM incubated for 24 hrs by Western blotting analysis (reference value: 1.00). Format: cell-based.
The target in assay [6] is T3, Speckle-type POZ protein-Bromodomain-containing protein 2 (Homo sapiens) (UniProt P25440+O43791). Briefly: PROTAC activity at SPOP/BRD2 in human HT-29 cells assessed as induction of BRD2 degradation by measuring fold change at 1.25 uM incubated for 24 hrs by Western blot analysis (reference value: 1.00). The class given is cell-based.
In assay [7] the target is T2, Speckle-type POZ protein-Bromodomain-containing protein 3 (Homo sapiens). Briefly: PROTAC activity at SPOP/BRD3 in human HT-29 cells assessed as induction of BRD3 degradation by measuring fold change at 0.625 uM incubated for 24 hrs by Western blot analysis (reference value: 1.00). The class given is cell-based.
Assay [8] addresses T1, Speckle-type POZ protein-Bromodomain-containing protein 4. The assay is described as follows: PROTAC activity at SPOP/BRD4-S in human HT-29 cells assessed as induction of BRD4 short isoform degradation by measuring maximal efficacy at 0.156 to 10 uM incubated for 24 hrs by Western blotting analysis relative to control. The class given is cell-based. Conditions: dose 0.156-10 µM.

Assay [9] addresses T2, Speckle-type POZ protein-Bromodomain-containing protein 3 (Homo sapiens). Briefly: PROTAC activity at SPOP/BRD3 in human HT-29 cells assessed as induction of BRD3 degradation by measuring fold change at 0.313 uM incubated for 24 hrs by Western blot analysis (reference value: 1.00). The class given is cell-based.
In assay [10] the target is T1, Speckle-type POZ protein-Bromodomain-containing protein 4. The assay is described as follows: PROTAC activity at SPOP/BRD4-S in human HT-29 cells assessed as induction of BRD4 short isoform degradation by measuring fold change at 5 uM incubated for 24 hrs by Western blotting analysis (reference value: 1.00). Format: cell-based.
Assay [11] has as its target T3, Speckle-type POZ protein-Bromodomain-containing protein 2 (Homo sapiens). The assay is described as follows: PROTAC activity at SPOP/BRD2 in human MDA-MB-231 cells assessed as induction of BRD2 degradation at 0.1 to 5 uM incubated for 24 hrs by Western blot analysis. Format: cell-based. The conditions noted are these: dose 0.1-5 µM.
The target in assay [12] is T1, Speckle-type POZ protein-Bromodomain-containing protein 4. Briefly: PROTAC activity at SPOP/BRD4-S in human HT-29 cells assessed as induction of BRD4 short isoform degradation at 5 uM measured after 16 to 72 hrs by Western blotting analysis. The conditions noted are these: time 16-72 hrs. Format: cell-based.
A further assay concerns HT-29. Briefly: Effect on BRD4 short isoform mRNA level in human HT-29 cells at 1 to 10 uM incubated for 24 hrs by RT-qPCR analysis. Format: functional, cell-based. Conditions: dose 1-10 µM.
Assay [13] concerns the target T1, Speckle-type POZ protein-Bromodomain-containing protein 4. Briefly: PROTAC activity at SPOP/BRD4-L in human HT-29 cells assessed as induction of BRD4 long isoform degradation by measuring fold change at 0.625 uM incubated for 24 hrs by Western blotting analysis (reference value: 1.00). The class given is cell-based.
Assay [14] has the same target. Briefly: PROTAC activity at SPOP/BRD4-L in human HT-29 cells assessed as induction of BRD4 long isoform degradation by measuring fold change at 10 uM incubated for 24 hrs by Western blotting analysis (reference value: 1.00). The class given is cell-based.
Assay [15] has the same target. Briefly: PROTAC activity at SPOP/BRD4-S in human MDA-MB-231 cells assessed as induction of BRD4 short isoform degradation at 0.1 to 5 uM incubated for 24 hrs by Western blotting analysis. The class given is cell-based. Conditions: dose 0.1-5 µM.
Assay [16] has the same target. The assay is described as follows: PROTAC activity at SPOP/BRD4-L in human HT-29 cells assessed as induction of BRD4 long isoform degradation at 10 uM incubated for 24 hrs by Western blotting analysis relative to control. Format: cell-based.
Assay [17] addresses Bromodomain-containing protein 4 (Homo sapiens, UniProt O60885). Briefly: Binding affinity to BRD4-BD2 domain (unknown origin) assessed as assessed as dissociation constant by ITC analysis.
Assay [18] concerns the target T1, Speckle-type POZ protein-Bromodomain-containing protein 4. Briefly: PROTAC activity at SPOP/BRD4-S in human HT-29 cells assessed as induction of BRD4 short isoform degradation by measuring fold change at 2.5 uM incubated for 24 hrs by Western blotting analysis (reference value: 1.00). The class given is cell-based.
Assay [19] has the same target. The assay is described as follows: PROTAC activity at SPOP/BRD4-S in human HT-29 cells assessed as induction of BRD4 short isoform degradation by measuring fold change at 1.25 uM incubated for 24 hrs by Western blotting analysis (reference value: 1.00). Format: cell-based.

Activity calls are given as the source filed them. The rule behind the calls is not given here.

This note sets out measurements from ChEMBL document CHEMBL6109152, “Harnessing the SPOP E3 Ubiquitin Ligase via a Bridged Proteolysis Targeting Chimera (PROTAC) Strategy for Targeted Protein Degradation” (J Med Chem, 2025).

T1 sequence (O43791 whole entry, looked up, other chains not shown, canonical isoform): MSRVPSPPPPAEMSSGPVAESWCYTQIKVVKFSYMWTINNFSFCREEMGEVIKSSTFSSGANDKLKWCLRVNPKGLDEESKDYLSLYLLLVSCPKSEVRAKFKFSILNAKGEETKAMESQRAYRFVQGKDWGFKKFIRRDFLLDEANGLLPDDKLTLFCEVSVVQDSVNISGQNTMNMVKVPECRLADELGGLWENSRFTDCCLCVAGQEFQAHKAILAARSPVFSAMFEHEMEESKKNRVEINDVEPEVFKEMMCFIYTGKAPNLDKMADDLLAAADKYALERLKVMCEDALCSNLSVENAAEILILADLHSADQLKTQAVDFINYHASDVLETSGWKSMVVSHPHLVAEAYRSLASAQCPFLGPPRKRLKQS
T2 sequence (O43791 whole entry, looked up, canonical isoform): as the sequence (O43791 whole entry, looked up, other chains not shown, canonical isoform) above
T2 sequence (Q15059 whole entry, looked up, canonical isoform): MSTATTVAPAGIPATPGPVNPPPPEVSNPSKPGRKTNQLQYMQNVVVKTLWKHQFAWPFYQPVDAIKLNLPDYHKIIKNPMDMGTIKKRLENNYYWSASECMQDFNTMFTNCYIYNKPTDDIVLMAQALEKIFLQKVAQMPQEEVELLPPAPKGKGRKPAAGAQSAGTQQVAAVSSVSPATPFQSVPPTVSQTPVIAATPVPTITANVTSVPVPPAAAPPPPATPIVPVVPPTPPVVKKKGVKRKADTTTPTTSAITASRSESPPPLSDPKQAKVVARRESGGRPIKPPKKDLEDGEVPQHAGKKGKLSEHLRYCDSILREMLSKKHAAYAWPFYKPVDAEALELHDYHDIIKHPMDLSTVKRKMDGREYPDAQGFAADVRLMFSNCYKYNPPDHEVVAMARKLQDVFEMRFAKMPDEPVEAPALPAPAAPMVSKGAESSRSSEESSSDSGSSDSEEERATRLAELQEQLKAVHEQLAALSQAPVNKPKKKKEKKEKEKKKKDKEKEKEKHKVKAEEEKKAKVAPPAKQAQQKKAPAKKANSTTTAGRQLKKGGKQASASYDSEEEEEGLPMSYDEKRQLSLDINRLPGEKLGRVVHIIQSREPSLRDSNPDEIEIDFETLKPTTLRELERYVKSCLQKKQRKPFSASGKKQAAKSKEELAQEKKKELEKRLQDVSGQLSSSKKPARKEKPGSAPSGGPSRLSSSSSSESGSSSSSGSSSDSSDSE
T3 sequence (O43791 whole entry, looked up): as the sequence (O43791 whole entry, looked up, other chains not shown, canonical isoform) above
T3 sequence (P25440 whole entry, looked up): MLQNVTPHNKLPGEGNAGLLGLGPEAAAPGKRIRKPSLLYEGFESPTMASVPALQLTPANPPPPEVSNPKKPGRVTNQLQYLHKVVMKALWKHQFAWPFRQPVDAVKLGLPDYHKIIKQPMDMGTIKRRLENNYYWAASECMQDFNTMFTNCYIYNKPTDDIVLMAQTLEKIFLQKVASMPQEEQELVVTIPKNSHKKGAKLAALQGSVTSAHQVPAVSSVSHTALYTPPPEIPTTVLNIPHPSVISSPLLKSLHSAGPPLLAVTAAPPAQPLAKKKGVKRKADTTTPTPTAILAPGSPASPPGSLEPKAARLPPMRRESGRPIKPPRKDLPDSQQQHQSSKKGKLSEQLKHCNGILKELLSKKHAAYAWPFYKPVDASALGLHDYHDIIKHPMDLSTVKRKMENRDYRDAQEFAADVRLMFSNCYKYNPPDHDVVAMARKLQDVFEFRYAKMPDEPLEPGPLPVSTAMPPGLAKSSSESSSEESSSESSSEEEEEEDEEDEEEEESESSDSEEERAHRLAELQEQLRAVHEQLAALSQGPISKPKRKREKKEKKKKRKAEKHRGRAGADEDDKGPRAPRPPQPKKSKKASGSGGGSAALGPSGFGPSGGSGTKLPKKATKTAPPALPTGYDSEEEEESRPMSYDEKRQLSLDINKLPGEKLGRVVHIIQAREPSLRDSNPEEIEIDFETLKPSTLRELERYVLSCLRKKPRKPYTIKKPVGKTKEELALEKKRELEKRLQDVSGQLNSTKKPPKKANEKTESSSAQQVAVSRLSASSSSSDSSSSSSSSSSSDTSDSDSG

As to `COc1cc2c(NC3CCN(CCCC(=O)NCCCCCCCCCCNC(=O)C[C@@H]4N=C(c5ccc(Cl)cc5)c5c(sc(C)c5C)-n5c(C)nnc54)CC3)cc(N3CCOCC3)nc2cc1OCCCN1CCCC1`, the result in [1], in assay [11], in [12] and in assay [15] was Active. The fold change (FC) stood at 1.3 in [2]; 1 in [3]; 1 in assay [4]; 0.3 in assay [5]; 1.1 in assay [6]; 0.9 in assay [7]. The fold change (FC) in assay [9] was determined as 0.9; in assay [10], 0.4; in assay [13], 1.2; in assay [14], 0.6; in [18], 0.5; in assay [19], 0.8. Besides, the maximal response (Emax) in assay [8] was 63%. In the assay on HT-29, the result was inactive. Besides, the Activity in assay [16] worked out at 50%. For the same compound, the Kd in assay [17] is 200 nM.
